The NIST ThermoML archive (doi:10.1021/acs.jced.9b00442)
± gives the expanded uncertainty stated by the source.

Conditions: 100 kPa, Liquid; for electrical conductivity: Frequency=0.0006 MHz, Alternating current cell with electrodes; for viscosity: Concentric cylinders viscometry; for mass density: Vibrating tube method

`CCCC[N+](CCO)(CCO)CCO.O=S(=O)([N-]S(=O)(=O)C(F)(F)F)C(F)(F)F` showed an electrical conductivity (283.15 K) of 0.004 ± 0.001 S/m, a viscosity (288.15 K) of 2752.6 ± 180 mPa·s and an electrical conductivity (288.15 K) of 0.007 ± 0.001 S/m. It also gave a mass density (289.15 K) of 1464.4 ± 1.2 kg/m3, a mass density (290.15 K) of 1463.6 ± 1.2 kg/m3 and a mass density (291.15 K) of 1462.7 ± 1.2 kg/m3. The mass density (292.15 K) was 1461.8 ± 1.2 kg/m3, the viscosity (293.15 K) was 1684.4 ± 100 mPa·s and the electrical conductivity (293.15 K) was 0.011 ± 0.001 S/m. For the same molecule, the mass density (293.15 K) was 1461 ± 1.2 kg/m3, the mass density (294.15 K) was 1460.1 ± 1.2 kg/m3 and the mass density (295.15 K) was 1459.2 ± 1.2 kg/m3. It also gave a mass density (296.15 K) of 1458.3 ± 1.2 kg/m3, a mass density (297.15 K) of 1457.5 ± 1.2 kg/m3 and a viscosity (298.15 K) of 1072 ± 59 mPa·s. For the same molecule, the electrical conductivity (298.15 K) was 0.016 ± 0.001 S/m, the mass density (298.15 K) was 1456.6 ± 1.2 kg/m3 and the mass density (299.16 K) was 1455.7 ± 1.2 kg/m3. The mass density (300.16 K) was 1454.9 ± 1.2 kg/m3, the mass density (301.15 K) was 1454 ± 1.2 kg/m3 and the mass density (302.15 K) was 1453.1 ± 1.2 kg/m3. The viscosity (303.15 K) was 708.7 ± 37 mPa·s, the electrical conductivity (303.15 K) was 0.024 ± 0.001 S/m and the mass density (303.15 K) was 1452.3 ± 1.2 kg/m3. It also gave a mass density (304.15 K) of 1451.4 ± 1.2 kg/m3, a mass density (305.15 K) of 1450.5 ± 1.2 kg/m3 and a mass density (306.15 K) of 1449.7 ± 1.2 kg/m3. For the same molecule, the mass density (307.15 K) was 1448.8 ± 1.2 kg/m3, the viscosity (308.15 K) was 484.5 ± 24 mPa·s and the electrical conductivity (308.15 K) was 0.034 ± 0.001 S/m. The mass density (308.15 K) was 1447.9 ± 1.2 kg/m3, the mass density (309.15 K) was 1447.1 ± 1.2 kg/m3 and the mass density (310.15 K) was 1446.2 ± 1.2 kg/m3. The mass density (311.15 K) was 1445.4 ± 1.1 kg/m3, the mass density (312.15 K) was 1444.5 ± 1.1 kg/m3 and the viscosity (313.15 K) was 340.8 ± 16 mPa·s. The electrical conductivity (313.15 K) was 0.046 ± 0.001 S/m, the mass density (313.15 K) was 1443.6 ± 1.1 kg/m3 and the mass density (314.15 K) was 1442.8 ± 1.1 kg/m3. It also gave a mass density (315.15 K) of 1441.9 ± 1.1 kg/m3, a mass density (316.15 K) of 1441 ± 1.1 kg/m3 and a mass density (317.15 K) of 1440.2 ± 1.1 kg/m3. The viscosity (318.15 K) was 245.9 ± 11 mPa·s, the electrical conductivity (318.15 K) was 0.062 ± 0.001 S/m and the mass density (318.15 K) was 1439.3 ± 1.1 kg/m3. It also gave a mass density (319.15 K) of 1438.4 ± 1.1 kg/m3, a mass density (320.15 K) of 1437.6 ± 1.1 kg/m3 and a mass density (321.15 K) of 1436.7 ± 1.1 kg/m3. The mass density (322.15 K) was 1435.8 ± 1.1 kg/m3, the viscosity (323.15 K) was 182 ± 7.9 mPa·s and the electrical conductivity (323.15 K) was 0.082 ± 0.002 S/m. It also gave a mass density (323.15 K) of 1435 ± 1.1 kg/m3, a mass density (324.15 K) of 1434.1 ± 1.1 kg/m3 and a mass density (325.15 K) of 1433.2 ± 1.1 kg/m3. It also gave a mass density (326.15 K) of 1432.4 ± 1.1 kg/m3, a mass density (327.15 K) of 1431.5 ± 1.1 kg/m3 and a viscosity (328.15 K) of 137.7 ± 5.8 mPa·s. The mass density (328.15 K) was 1430.6 ± 1.1 kg/m3, the mass density (329.15 K) was 1429.8 ± 1.1 kg/m3 and the mass density (330.15 K) was 1428.9 ± 1.1 kg/m3. It also gave a mass density (331.15 K) of 1428.1 ± 1.1 kg/m3, a mass density (332.15 K) of 1427.2 ± 1.1 kg/m3 and a viscosity (333.15 K) of 106.6 ± 4.4 mPa·s. The mass density (333.15 K) was 1426.3 ± 1.1 kg/m3, the mass density (334.15 K) was 1425.5 ± 1.1 kg/m3 and the mass density (335.16 K) was 1424.6 ± 1.1 kg/m3. It also gave a mass density (336.15 K) of 1423.8 ± 1.1 kg/m3, a mass density (337.15 K) of 1422.9 ± 1.1 kg/m3 and a viscosity (338.15 K) of 83.5 ± 3.4 mPa·s. For the same molecule, the mass density (338.15 K) was 1422.1 ± 1.1 kg/m3, the mass density (339.15 K) was 1421.2 ± 1.1 kg/m3 and the mass density (340.15 K) was 1420.4 ± 1.1 kg/m3. For the same molecule, the mass density (341.15 K) was 1419.5 ± 1.1 kg/m3, the mass density (342.15 K) was 1418.7 ± 1.1 kg/m3 and the viscosity (343.15 K) was 66.7 ± 2.7 mPa·s. The mass density (343.15 K) was 1417.8 ± 1.1 kg/m3, the mass density (344.15 K) was 1417 ± 1.1 kg/m3 and the mass density (345.15 K) was 1416.1 ± 1.1 kg/m3. For the same molecule, the mass density (346.15 K) was 1415.3 ± 1.1 kg/m3, the mass density (347.15 K) was 1414.5 ± 1.1 kg/m3 and the viscosity (348.15 K) was 54.1 ± 2.2 mPa·s. The mass density (348.15 K) was 1413.6 ± 1.1 kg/m3, the mass density (349.15 K) was 1412.8 ± 1.1 kg/m3 and the mass density (350.15 K) was 1411.9 ± 1.1 kg/m3. The mass density (351.15 K) was 1411.1 ± 1.1 kg/m3, the mass density (352.15 K) was 1410.3 ± 1.1 kg/m3 and the viscosity (353.15 K) was 44.7 ± 1.8 mPa·s. For the same molecule, the mass density (353.15 K) was 1409.4 ± 1.1 kg/m3, the mass density (354.15 K) was 1408.6 ± 1.1 kg/m3 and the mass density (355.15 K) was 1407.7 ± 1.1 kg/m3. It also gave a mass density (356.15 K) of 1406.9 ± 1.1 kg/m3, a mass density (357.15 K) of 1406.1 ± 1.1 kg/m3 and a viscosity (358.15 K) of 37 ± 1.5 mPa·s. It also gave a mass density (358.15 K) of 1405.2 ± 1.1 kg/m3, a mass density (359.15 K) of 1404.4 ± 1.1 kg/m3 and a mass density (360.15 K) of 1403.6 ± 1.1 kg/m3. It also gave a mass density (361.15 K) of 1402.8 ± 1.1 kg/m3, a mass density (362.16 K) of 1401.9 ± 1.1 kg/m3 and a viscosity (363.15 K) of 31.1 ± 1.3 mPa·s. For the same molecule, the mass density (363.15 K) was 1401.1 ± 1.1 kg/m3.
